Entries after “also recorded” stand apart in the source; their conditions may differ.
Tests used:
Con1 replicon cells = test: 8-OHG oxidative RNA damage in SgPC2 Con1 replicon cells (ELISA); assay type: cell-based, human; details: for level of 8-OHG in ethanol and BSO-treated replicon cells with inhibitor: 0.5% ethanol or 20 μM BSO daily for 48 hr, 10 μM dipyridyl, 2 mM GSH ester, 5 μM PIH, 0.1 mM DETAPAC, 1 mM L-NMA, DPI, 25 μM DADS
Experimental: Total RNA was isolated using Trizol (Invitrogen) and analyzed for 8-OH-guanosine (8-OH-G) by northwestern, as described (Shan X et al. (2003) J. Neurosci. 23:4913-4921). Briefly, RNA was size-fractionated by agarose gel electrophoresis, transferred to a nylon membrane, blocked with 1% BSA, incubated sequentially with monoclonal anti-8-OH-G/dG antibodies (QED Bioscience, Inc.) and then with goat anti-mouse HRP-conjugated secondary antibody (Santa Cruz Biotechnology), and signals were detected, using an ECL kit (Amersham). In addition, RNA was digested with nuclease P1 (Sigma, US Biological) and alkaline phosphatase (Promega) and analyzed for 8-OH-G content using RNA Damage Kit (Cell Biolabs, Inc.), following manufacturer's protocols.
Total RNA was isolated using Trizol (Invitrogen) and analyzed for 8-OHG by ELISA. Briefly, RNA was incubated with 10 U DNase I (GE Healthcare), 10 U nuclease P1 (Sigma or US Biological), and 10 U alkaline phosphatase (Promega) and analyzed for 8-OHG content with RNA Damage Kit (Cell Biolabs, Inc.) and 8-OHG standards, following manufacturer's protocols.

[1] = test system: subgenomic HCV replicon of genotype 1b (Con1S1179I), NS5A region; test: NS5A sequencing of HCV RNA, nucleotide and amino acid substitution rates in Con1 replicon cells (Example 2); assay type: cell-based, Hepatitis C virus; details: for amino acid substitution rate in the BSO group with co-treatment: 20 μM BSO daily for 48 hr; for amino acid substitution rate in the BSO group with co-treatment / amino acid substitution rate in the ethanol group with co-treatment / nt. substitution rates of ethanol and BSO groups with co-treatment / dn/ds ratio in the BSO group with co-treatment: 10 μM dipyridyl or 2 mM GSH ester; for amino acid substitution rate in the ethanol group with co-treatment: 0.5% ethanol daily for 48 hr; for nt. substitution rates of ethanol and BSO groups with co-treatment: 0.5% ethanol or 20 μM BSO daily for 48 hr; for percentage of sites undergoing positive selection with co-treatment: FIG. 8A; for dn/ds ratio of the control group with co-treatment: from 0.31 without inhibitor; for dn/ds ratio in the BSO group with co-treatment: from 0.72 without inhibitor, 48 hr; for Nt. change per site: Con1 replicon cells, once daily for 48 hrs, T7 baseline subtracted, ethanol 0.5% v/v, BSO 20 μM, H2O2 100 μM, acetaldehyde 10 μM; for Fold increase (Amino acid change per site): over control, 48 hrs
Experimental: Huh7 cell clones (SgPC2 cells) supporting continuous replication of a subgenomic HCV replicon of genotype 1b (Con1S1179I sequence) were used (Choi J. et al. (2004) Hepatology 39:81-89; Blight K J et al. (2000) Science 290:1972). Subgenomic replicons support the HCV RNA genome replication by the viral replicase but no virus is formed. The in vitro transcription, transfection of the viral RNA, and Huh7 human hepatoma cell culture were performed as described (Choi J. et al. (2004) Hepatology 39:81-89; Blight K J et al. (2000) Science 290:1972). All biochemicals including ethanol (molecular biology grade), acetaldehyde, BSO, H2O2, dipyridal, and GSH ethyl ester were obtained from SigmaAldrich except PIH, which was synthesized according to published methods (Kicic A et al., (2001) Cancer 92: 3093-3110; Ponka P. et al., (1979) FEBS Lett 97: 317-321).
Total RNAs were collected using Trizol (Invitrogen). Then, the NS5A region (nt. 4612 to 6013 of Con1 replicon) was reverse transcribed/amplified with AccuScript High Fidelity RT-PCR System (Agilent). The reverse primer used for reverse transcription and PCR amplification was 5′-[…]-3′ (SEQ ID NO: 1), and the forward primer was 5′-[…]-3′ (SEQ ID NO: 2). The XbaI and HindIII restriction enzyme sites are underlined. The cDNA products were cloned into pUC19 via HindIII and XbaI sites and sequenced at the Joint Genome Institute (Livermore, Calif.) and University of California Berkeley Sequencing (Berkeley, Calif.). Sequences were aligned against Con1(S1179I) sequence, using BioEdit/MEGA 4.0 Molecular Evolutionary Genetics Analysis software. Cumulative synonymous and nonsynonymous mutations were computed using Synonymous Nonsynonomous Analysis Program (SNAP; www.hcv.lanl.gov). The […] ratio was calculated using SNAP. Amino acid substitution trends were analyzed by position with MutationCounter, a mutation counting program, developed for this project. The sequences were compared with 1,212 genotype 1b NS5A sequences pooled from the Lawrence Livermore HCV sequence database (www.hcv.lanl.gov) which included sequences from the European, Asian, and Russian databases. Sequences harboring gaps, undetermined nucleotides, or incomplete NS5A sequences were removed prior to the analysis.
To test whether ethanol can affect the HCV RNA sequence, Con1 replicon cells that support genotype 1b subgenomic HCV RNA replication were incubated with ethanol (0.5% v/v), BSO (20 μM), H2O2 (100 μM), or acetaldehyde (10 μM) once daily for 48 hrs with a change of the cell culture medium at the time of each treatment. Acetaldehyde and H2O2 are generated during hepatic metabolism of ethanol. BSO, by inhibiting GSH biosynthesis, mimics GSH depletion seen in hepatitis C patients. GSH participates in detoxification reactions that remove reactive species such as H2O2 and acetaldehyde. Thus, by decreasing GSH, BSO also amplifies the effects of endogenous ROS and RNS, allowing one to test the effects of endogenous ROS/RNS. Then, the RNA was collected, and the NS5A region corresponding to nt. 4612 to 6013 of Con1 replicon was reverse transcribed using AccuScript reverse transcriptase and amplified with PfuUltra (Agilent). PfuUltra is a high fidelity DNA polymerase with an error rate of 4.3×10^−9; AccuScript reverse transcriptase has an error rate of 1.61×10^−7. Then, the cDNA products were cloned into pUC19 and sequenced by the Sanger method.

[2] = test system: subgenomic HCV replicon of genotype 1b (Con1), NS5A region; test: NS5A sequencing of HCV RNA, mutation frequency in SgPC2 Con1 replicon cells (Example 1); assay type: cell-based, Hepatitis C virus; details: H2O2 100 μM, acetaldehyde 10 μM, once daily for 48 hrs
Experimental: Huh7 cell clones (SgPC2 cells) supporting continuous replication of a subgenomic HCV replicon of genotype 1b (Con1 sequence) were used (Choi J. et al. (2004) Hepatology 39:81-89; Blight K J et al. (2000) Science 290:1972). The subgenomic replicons support HCV RNA replication but no virus is formed. The in vitro transcription, transfection of HCV RNA, and Huh7 human hepatoma cell culture were performed by methods known in the art and as previously described (Choi J. et al. (2004) Hepatology 39:81-89; Blight K J et al. (2000) Science 290:1972).
After various treatments, total RNAs were collected using Trizol (Invitrogen). Then, the NS5A region (nt. 4612 to 6013 of Con1 replicon) was reverse transcribed/amplified with AccuScript High Fidelity RT-PCR System (Stratagene). The cDNAs were cloned into pUC19 and sequenced at the Joint Genome Institute (Livermore, Calif.). Sequences were aligned against Con1(S11791) sequence, using BioEdit/MEGA 4.0 Molecular Evolutionary Genetics Analysis software.
To test whether ethanol can increase the mutation rate of HCV, SgPC2 Con1 replicon cells that support genotype 1b subgenomic HCV RNA replication (FIG. 2B) were incubated with ethanol (0.5%), BSO (amplifies the effects of endogenous ROS/RNS by decreasing the level of glutathione in the cell), H2O2 (100 μM), or acetaldehyde (10 μM) once daily for 48 hrs. Then, the RNAs were collected, and the NS5A region (nt. 4612 to 6013 of Con1 replicon) was reverse transcribed/amplified with AccuScript High Fidelity RT-PCR System (Stratagene). Then, the cDNAs were cloned into pUC19 and sequenced at the Joint Genome Institute (Livermore, Calif.). T7 HCV RNA transcript, initially used to transfect the Con1 cells, was also sequenced to assess the basal level of RNA heterogeneity, such as due to any heterogeneity of the DNA template prior to in vitro transcription as well as any errors generated during transcription and RT-PCR cloning. The experiments were focused on NS5A because of its moderate level of diversity and its role in viral replication as well as interferon resistance. Sequences were aligned against Con1(S1179I) sequence, using BioEdit/MEGA 4.0 Molecular Evolutionary Genetics Analysis software.

With `C=CCSSCC=C` [DADS, diallyl disulfide] as the compound, how does the “level of 8-OHG in ethanol and BSO-treated replicon cells with inhibitor” value (“level of 8-OHG … with inhibitor” for short) (Con1 replicon cells) read?
Its value is “reduce; also recorded: decreased”.

For `O=C(O)CN(CCN(CC(=O)O)CC(=O)O)CCN(CC(=O)O)CC(=O)O` [DETAPAC, 1,1,4,7,7-diethylenetriaminepentaacetic acid], which “level of 8-OHG … with inhibitor” value (Con1 replicon cells) is on record?
The value was “decreased”.

And the “decrease of 8-OHG levels in BSO-treated SgPC2 cells” value (Con1 replicon cells; DETAPAC 0.1 mM)?
The value was 19.7±0.2%.

What about the “decrease of 8-OHG levels in control SgPC2 cells” value (Con1 replicon cells; DETAPAC 0.1 mM) of the same compound?
Its value is 28.0±0.3%.

And the “decrease of 8-OHG levels in ethanol-treated SgPC2 cells” value (Con1 replicon cells; DETAPAC 0.1 mM)?
Its value is 13.8±0.3%.

With `c1ccc2c(c1)[I+]c1ccccc1-2` [DPI, diphenylene iodonium] as the compound, how does the “level of 8-OHG … with inhibitor” value (Con1 replicon cells) read?
Its value is “reduce; also recorded: decreased”.

What does the source list for `c1ccc(-c2ccccn2)nc1` [Dipyridyl, α,α′-Dipyridyl]?
dn/ds ratio in the ethanol group with co-treatment [1]: 0.46; amino acid substitution rate in the BSO group with co-treatment [1]: effectively abolished; amino acid substitution rate in the ethanol group with co-treatment [1]: significantly attenuated; nt. substitution rates of ethanol and BSO groups with co-treatment [1]: no longer any significant increase over the control; percentage of sites undergoing positive selection with co-treatment [1]: decreased; dn/ds ratio of the control group with co-treatment [1]: did not affect; dn/ds ratio in the BSO group with co-treatment [1]: 0.46; level of 8-OHG in ethanol and BSO-treated replicon cells with inhibitor (Con1 replicon cells): significantly decreased

Which “dn/ds ratio in the ethanol group with co-treatment” value [1] does the source give for `CCOC(=O)CNC(=O)[C@H](CS)NC(=O)CC[C@H](N)C(=O)O` [GSH ester, glutathione ethyl ester] here?
Its value is 0.43.

What about the “amino acid substitution rate in the BSO group with co-treatment” value [1] of the same compound?
The value was “not significantly above the control”.

What about the “amino acid substitution rate in the ethanol group with co-treatment” value [1] of the same compound?
The value was “not significantly above the control”.

What about the “nt. substitution rates of ethanol and BSO groups with co-treatment” value [1] of the same compound?
Its value is “not significantly above the control”.

What about the “percentage of sites undergoing positive selection with co-treatment” value [1] of the same compound?
Its value is “decreased”.

And the “dn/ds ratio of the control group with co-treatment” value [1]?
The value was 0.24.

And the “dn/ds ratio in the BSO group with co-treatment” value [1]?
The value was 0.21.

And the “level of 8-OHG … with inhibitor” value (Con1 replicon cells)?
The value was “reduce; also recorded: effectively decreased”.

Which results are given for `OO` [H2O2, hydrogen peroxide]?
increase in mutation frequency vs control [2]: not statistically significant; Nt. change per site [1]: 5.28×10^−4 nt. change per site; Fold increase (Amino acid change per site) [1]: about 10 fold

Which “level of 8-OHG … with inhibitor” value (Con1 replicon cells) does the source give for `CC(=O)O.CNC(=N)NCCC[C@H](N)C(=O)O` [L-NMA, N^G-methyl-L-arginine acetate] here?
The value was “reduce; also recorded: decreased”.

`[Cl][Ni][Cl]` [NiCl2] was tested. Which “fold increase in 8-OHG content over the control” value (Con1 replicon cells; 48 hrs, 0.5% (v/v) ethanol, 20 μM BSO, 250 μM NiCl2 daily) did it give?
Its value is 55.4±3.1 fold.

For `Cc1ncc(CO)c(C=NNC(=O)c2ccncc2)c1O` [PIH, pyridoxal isonicotinoyl hydrazone], which “level of 8-OHG … with inhibitor” value (Con1 replicon cells) is on record?
The value was “decreased”.

And the “level of 8-OHG … with inhibitor” value (Con1 replicon cells; listed as pyridoxal isonicotinoyl hydrazone)?
The value was “significantly decreased”.

What does the source list for `CC=O` [acetaldehyde]?
increase in mutation frequency vs control [2]: not statistically significant; Nt. change per site [1]: 4.25×10^−4 nt. change per site; Fold increase (Amino acid change per site) [1]: did not increase; 8-OH-G in Con1 replicon (SgPC2) cells, daily treatment for 2 weeks (Con1 replicon cells; 0.1% ethanol, 5 μM acetaldehyde, 20 μM BSO): significant increases

Reference: patent US20110206638A1, “COMPOSITIONS AND METHODS FOR REDUCING THE MUTATION RATE OF VIRUSES” (priority 2010, published 2011)
